What was measured:
M. abscessus strain 103 = assay: Mouse model of M. abscessus in the SCID mouse; type: in vivo; conditions: treatment end
M. avium = assay: Minimum inhibitory concentration, microbroth dilution, presence and absence of CF sputum; type: cell-based; conditions: Mycobacterium avium, M. avium B18101968; + SP (10% CF sputum)
Description: Minimum inhibitory concentration (MIC) testing was performed by microbroth dilution method using Mueller Hinton (MH) broth (Cation Adjusted) to the calcium and magnesium ion concentration recommended in the CLSI standard M7-A7 (Becton Dickinson). MIC testing also was performed by microbroth dilution method using 7H9 broth (Sigma-Aldrich). […] M. abscessus was grown on 7H11 agar plates (Sigma-Aldrich) for 3 days at 35-37° C. in ambient air (depending on bacterial strain), and M. avium was grown on agar 7H11 plates (Sigma-Aldrich) for 21-30 days at 37° C. in ambient air.
The colony forming units (CFUs) are taken from the agar plates and placed in either MH or 7H9 broth with 0.05% tween-80 and grown at 35-37° C. in ambient air until the optical density (OD) absorbance taken after 3 days (M. abscessus) or 12 (M. avium) of growth is an (OD) 0.08-0.1 (0.5 McFarland Standard). The bacterial cell suspensions are then confirmed by preparing them in saline, matching the (OD) 0.08-0.1 (0.5 McFarland Standard). […]
Minimum inhibitory concentrations assays were performed as described above. […] The MIC of the Composition of Example 1 was measured following the same CLSI protocol as described above, in the presence and absence of cystic fibrosis patient sputum. […]

[1] = system: M. avium strain 2285 rough; assay: Acute mouse model of M. avium infection in the Beige mouse; type: in vivo; conditions: treatment end, Oral 20 mg/kg every other day from day 7
M. avium 2285 rough = assay: Chronic Beige mouse model; type: in vivo, Beige mice; conditions: Day 57, Oral 20 mg/kg, 14 treatments every other day from Day 28
[2] = Plasma toxicokinetics, 28-day inhalation study in dogs; conditions: Beagle, dog, in vivo, inhaled or intranasal
Description: The animals were studied for a period of 84 days.
All GLP canine study activities were performed by Lovelace Biomedical Research Institute (LBRI) under an IACUC approved protocol. Five groups of Beagle dogs were divided into study groups (Table 1) and exposed once daily by face-mask inhalation to filtered air (Group 1), vehicle (Group 2-0.5% polysorbate in saline), or CIS (Groups 3-5) for 28 consecutive days. The Low, Mid, and High doses (Groups 3, 4, and 5) were exposed to an average aerosol concentration of 0.209 mg/L for 30 min, 60 min and 120 min, respectively. The 28-day exposure period was followed by 28- and 56-day no exposure recovery periods (Recovery Study, Study Day (SD) 56 and 84 respectively). Blood was collected for toxicokinetic (TK) analysis from animals after both the first day of dose administration (Day 1; (0.5 hours (±5 minutes), 6 hours (±30 minutes), 12 hours (±30 minutes), 24 hours (±1 hour)), the last day of dose administration (SD28), and at […], SD56 and SD84, as indicated in Table 1. Main Study animals were necropsied one day post final exposure (SD29), while two male and two female Recovery Study animals were each necropsied on SD56 and SD84.
Aerosolized CIS was delivered to each dog by way of a 6-port aerosol exposure system using three Micro Mist compressed air jet nebulizers. (Supplementary Figure S1) All animals were conditioned to the face masks and restraint system before study. The exposure system and aerosol characteristics of the API and vehicle, including target aerosol concentration, concentration homogeneity, concentration repeatability, and aerosol size distribution were confirmed by LBRI prior to study. Dosing for each dog was measured for every dose delivered throughout study and calculated against individual dog weights.
Blood samples were immediately processed or held on wet ice for no more than 2 hours (hr) before being processed to plasma by centrifugation (1300 g, 2-8° C., ≥10 minutes), with plasma separated into appropriately labeled vials and stored frozen (−70 to −90° C.) until CFZ analysis.
Main study animals (3M/3F per timepoint) had blood samples collected at the following timepoints post-exposure on SD1 and SD28: 0.5 hr (±5 minutes), 6.0 hr (±30 minutes), 12 hr (±30 minutes), and 24 hr (±1 hr). Recovery animals (2M/2F per Recovery timepoint) from each group had blood collected on SD42, and prior to euthanasia on SD56 or SD84. The sample size for each group, sex, and timepoint is described in Table 1. Actual collection times were documented, and all animals in this study underwent scheduled sampling at their respective timepoints.
Retention time and peak area were determined by Analyst® Data Acquisition/Processing Software (Version 1.6.3). Analyte concentrations were obtained from a calibration curve constructed by plotting the peak area versus the nominal concentration using Analyst.
Clinical observations were descriptive while numerical evaluations (means and standard deviations) were used for all other parameters where possible. Toxicokinetic parameters were estimated for blood plasma using Phoenix WinNonlin version 8.3 software (Certara L.P.) with a non-compartmental analysis (NCA) consistent with aerosol administration (extravascular model) on each subject at each timepoint. NCA was only performed if there were quantifiable concentrations at two consecutive timepoints. Concentration values below the lower limit of quantitation of 2.00 ng/ml for plasma were labeled as below quantitative limits (BQL). These BQL values were treated as missing and excluded from calculation of descriptive statistics and toxicokinetic analysis.
Concentrations were used with full precision to three significant figures as received from bioanalytical data.

[3] = Lung and other tissue toxicokinetics, 28-day inhalation study in dogs; conditions: Beagle, in vivo, inhaled or intranasal, dog lung, SD29 to SD84, read-out: lung terminal elimination half-life (converted)
Text: Clofazimine was extracted by protein precipitation from dog plasma.

clinical = conditions: human, plasma, inhaled
Description: (§2) For placebo, subjects were treated with a nebulized sterile, isotonic saline solution consisting of 0.9% wt/v sodium chloride. […] The doses were administered by inhalation with a Pari e-Flow nebulizer system to investigate tolerability and pharmacokinetics (PK) in healthy human subjects. The subjects were monitored for any life-threatening or severe adverse events and samples of their blood were taken for analysis.
(§3) Participants resided at the clinical research unit until day 5 post-dose, during which time they were evaluated for safety and samples were collected for PK assessment. Participants returned on days 8 and 15 for additional safety assessments and sample collection. […] Participants resided at the clinical research unit until day 8 post-dose, during which time they were evaluated for safety and samples were collected for PK assessment. Participants returned on days 15 and 36 for additional safety assessments and sample collection.

[4] = BCS class II drug; cited from earlier work
[5] = cited from earlier work
[6] = Pharmacokinetics of clofazimine delivered by nebulization in healthy subjects
Description: as §2, §3

[7] = Safety and tolerability of clofazimine delivered by nebulization in healthy subjects; conditions: inhaled, nebulized
Description: as §2, §3

A549 = assay: Effects of surfactants on cell viability, MTT assay; type: cell-based, human; conditions: 1% in HBSS, positive control
Description: (§1) Effects of surfactants on cell viability study: The effects of a surfactant such as polysorbate 80 (PS 80) containing various fatty acids components were used in this study to determine their effect on cell viability in the lungs upon administration of composition for lung delivery. In vitro experiments were carried out using three different human cell lines, i.e., human cell lines A549 (type II pulmonary epithelial cell derived), hAELVi, (human alveolar epithelial cell) and Calu-3 (lung adenocarcinoma cell). The cell lines were obtained from ATCC (Bethesda, MD) and maintained as recommended by the provider and seeded and incubated for the 24 hour test in 96-well plates containing 4×10^4/well in RPMI 1640 medium (Gibco). For testing, the medium as aspirated, the cells were washed twice with Hank's balanced Salt Solution (HBSS) at pH 7.4 and a 0.2 ml sample solution containing a surfactant was added to the cells. HBSS was used as negative control as well as HBSS containing 1% TritonX-100 as positive control. Surfactants under study were two, a super-refined grade PS 80 comprising a mixture of various fatty acid esters of about 70% to 85% total content being oleic acid and having other components including, mystiric, palmitic, palmitoleic, stearic, linoleic and linolenic acid esters. This super-refined PS 80 (Tween® 80, A) manufactured by Mallinckrodt Baker or Merck, and a second PS 80 (B, NOF Corporation) comprising an oleic acid component of about 99% were tested. In the experiments to determine the in vitro IC50 values, the cell lines were exposed to equal concentrations of the two surfactants in HBSS solution at the same concentrations and several dilutions of the test compounds after incubation for 4 hours at 37° C. with shaking, washed with HBSS. Cell viability was assessed based on the absorbance measurements at 550 nm obtained using the MTT assay as described in Metz et al., J. ALTEX, Jan. 29, 2020: V.2 doi:10.14573/altex.1910231. FIGS. 8 and 9, and Table 16 illustrate data obtained from the experiments.

Calu-3 = assay: as above; type: cell-based, human; conditions: 1% in HBSS, positive control
Description: as §1

hAELVi = assay: as above; type: cell-based, human; conditions: 1% in HBSS, positive control
Description: as §1

Compound: NCC[C@H](O)C(=O)N[C@@H]1C[C@H](N)[C@@H](O[C@H]2O[C@H](CN)[C@@H](O)[C@H](O)[C@H]2O)[C@H](O)[C@H]1O[C@H]1O[C@H](CO)[C@@H](O)[C@H](N)[C@H]1O [Amikacin, amikacin]
- Liver Log10 CFU ± SEM (M. abscessus strain 103; SQ 150 mg/kg every other day): 3.07 ± 0.10 Log10 CFU
- Lung Log10 CFU ± SEM (M. abscessus strain 103; SQ 150 mg/kg every other day): 3.94 ± 0.11 Log10 CFU
- Spleen Log10 CFU ± SEM (M. abscessus strain 103; SQ 150 mg/kg every other day): 4.37 ± 0.31 Log10 CFU

Compound: CC(C)/N=c1\cc2n(-c3ccc(Cl)cc3)c3ccccc3nc-2cc1Nc1ccc(Cl)cc1 [Clofazimine, N,5-bis(4-chlorophenyl)-3-propan-2-yliminophenazin-2-amine]
- MIC (M. avium): > 2 µg/mL
- Liver Log10 CFU ± SEM (M. abscessus strain 103; Oral 20 mg/kg every other day): 4.78 ± 0.18 Log10 CFU
- Lung Log10 CFU ± SEM (M. abscessus strain 103; Oral 20 mg/kg every other day): 3.33 ± 0.17 Log10 CFU
- Spleen Log10 CFU ± SEM (M. abscessus strain 103; Oral 20 mg/kg every other day): 3.79 ± 0.10 Log10 CFU
- Liver Log10 CFU ± SEM [1]: 3.01 ± 0.03 Log10 CFU
- Lung Log10 CFU ± SEM [1]: 3.95 ± 0.03 Log10 CFU
- Spleen Log10 CFU ± SEM [1]: 3.14 ± 0.03 Log10 CFU
- Liver Log10 CFU ± SEM (M. avium 2285 rough): 4.07 ± 0.04 Log10 CFU
- Lung Log10 CFU ± SEM (M. avium 2285 rough): 5.94 ± 0.12 Log10 CFU
- Spleen Log10 CFU ± SEM (M. avium 2285 rough): 3.08 ± 0.04 Log10 CFU
- half-life ([2]; female, 0.74 mg/kg): 8.99 h
- half-life ([2]; female, 1.48 mg/kg): 9.43 h
- half-life ([2]; female, 2.52 mg/kg): 7.23 h
- half-life ([2]; male, 0.68 mg/kg): 7.19 h
- half-life ([2]; male, 1.36 mg/kg): 8.95 h
- half-life ([2]; male, 2.72 mg/kg): 7.89 h
- half-life ([3]; female, 2.95 mg/kg, Low dose females): 262 h
- half-life ([3]; male, 5.45 mg/kg, Mid dose males): 239 h
- half-life ([3]; male, 10.87 mg/kg, High dose males): 475 h
- half-life (clinical): 290 h
- solubility in water [4]: practically insoluble in water
- absorption in humans after oral administration [5]: 45-62%
- time to peak plasma concentrations ([6]; repeated administration, inhaled 30 or 90 mg daily for seven days): 2 to 12 h
- time to peak plasma concentrations ([6]; single administration, inhaled 30, 60, 90 mg): 4 to 8 h
- increase in AUC0-24 ([6]; single administration, dose increase of 1.5-fold): 1.6 fold
- increase in AUC0-24 ([6]; single administration, dose increase of 2-fold): 2.3 fold
- Columbia Suicide Severity Rating Scale (C-SSRS) [7]: no suicidal ideation or behavior
- ECG results [7]: no abnormal, clinically significant electrocardiogram
- skin discoloration [7]: no evidence of skin discoloration

Compound: Triton X-100
- cell viability (A549): loss all viability
- cell viability (Calu-3): loss all viability
- cell viability (hAELVi): loss all viability
